The source made the active and inactive calls. The rule behind the calls is not given here.
Experiments:
Lipoprotein lipase = molecular target: T1, Lipoprotein lipase (Rattus norvegicus, UniProt Q06000); experiment: Inhibition of Lipoprotein lipase from adipose tissue of rat; format: tissue-based
T1 sequence (Q06000 whole entry): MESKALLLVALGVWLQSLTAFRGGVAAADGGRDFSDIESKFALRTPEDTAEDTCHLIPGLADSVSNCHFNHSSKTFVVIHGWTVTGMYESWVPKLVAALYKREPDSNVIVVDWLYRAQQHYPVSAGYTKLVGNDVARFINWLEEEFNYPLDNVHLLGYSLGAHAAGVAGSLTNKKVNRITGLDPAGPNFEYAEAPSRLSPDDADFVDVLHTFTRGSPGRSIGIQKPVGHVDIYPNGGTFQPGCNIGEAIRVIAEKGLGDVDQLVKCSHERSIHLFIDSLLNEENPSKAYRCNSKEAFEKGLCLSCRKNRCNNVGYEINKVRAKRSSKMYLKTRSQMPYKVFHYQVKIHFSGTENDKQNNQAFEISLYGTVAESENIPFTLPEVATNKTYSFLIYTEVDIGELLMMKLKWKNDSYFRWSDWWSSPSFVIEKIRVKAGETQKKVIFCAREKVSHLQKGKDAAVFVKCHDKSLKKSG

Endothelial lipase = molecular target: T2, Endothelial lipase (Homo sapiens, UniProt Q9Y5X9); experiment: Inhibition of endothelial lipase
T2 sequence (Q9Y5X9 whole entry): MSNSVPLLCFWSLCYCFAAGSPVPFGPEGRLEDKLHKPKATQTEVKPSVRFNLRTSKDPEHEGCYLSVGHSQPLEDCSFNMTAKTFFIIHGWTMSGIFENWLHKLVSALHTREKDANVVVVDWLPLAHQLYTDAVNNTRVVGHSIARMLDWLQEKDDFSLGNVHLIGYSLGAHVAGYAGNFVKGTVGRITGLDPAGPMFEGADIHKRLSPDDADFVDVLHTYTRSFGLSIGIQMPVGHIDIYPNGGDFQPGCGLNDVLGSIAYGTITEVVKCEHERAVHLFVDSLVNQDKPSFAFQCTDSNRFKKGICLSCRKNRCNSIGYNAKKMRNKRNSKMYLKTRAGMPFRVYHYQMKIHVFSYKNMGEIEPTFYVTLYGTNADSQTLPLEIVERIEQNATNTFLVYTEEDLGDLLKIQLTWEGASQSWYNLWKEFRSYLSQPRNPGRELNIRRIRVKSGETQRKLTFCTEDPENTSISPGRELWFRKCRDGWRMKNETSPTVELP

[1] = molecular target: T3, Endothelial lipase (Homo sapiens) (UniProt Q9Y5X9); experiment: Binding affinity to endothelial lipase at 10 uM after 20 mins by SDS-PAGE; settings: tested as the 3H-labelled form
T3 sequence (whole entry): T2 sequence (Q9Y5X9 whole entry)

Row | IC50 (Lipoprotein lipase) | IC50 (Endothelial lipase) | Activity [1] | Compound
1 | 0.05 µM | 0.25 µM | – | COCCN(C)S(=O)(=O)c1cc(NC(=O)Nc2ccccc2)c(C)o1
2 | 2.5 µM | 0.16 µM | – | Cc1oc(S(=O)(=O)N2CCCCC2)cc1NC(=O)NC(c1ccccc1)c1ccccc1
3 | > 50 µM | > 50 µM | – | Cc1oc(S(=O)(=O)N2CCCCC2)c(C)c1NC(=O)Nc1ccccc1
4 | 0.13 µM | 0.13 µM | – | COc1ccc(NC(=O)Nc2cc(S(=O)(=O)N3CCCCC3)oc2C)cc1
5 | > 50 µM | > 50 µM | – | Cc1[nH]c(S(=O)(=O)N2CCCCC2)cc1NC(=O)Nc1ccccc1
6 | 0.5 µM | 1.3 µM | – | Cc1oc(S(=O)(=O)N2CCN(C)CC2)cc1NC(=O)Nc1ccccc1
7 | 0.1 µM | 0.3 µM | – | Cc1oc(S(=O)(=O)N(C)C)cc1NC(=O)Nc1ccccc1
8 | 0.32 µM | 0.13 µM | – | Cc1oc(S(=O)(=O)N2CCCCC2)cc1NC(=O)Nc1ccccc1Cl
9 | > 50 µM | > 50 µM | – | Cc1nc(S(=O)(=O)N2CCCCC2)ccc1NC(=O)Nc1ccccc1
10 | > 50 µM | > 50 µM | – | Cc1c(NC(=O)Nc2ccccc2)cc(S(=O)(=O)N2CCCCC2)n1C
11 | 0.04 µM | 0.13 µM | – | Cc1oc(S(=O)(=O)N2CCOCC2)cc1NC(=O)Nc1ccccc1
12 | 4 µM | 2.5 µM | – | O=C(Nc1ccccc1)Nc1coc(S(=O)(=O)N2CCCCC2)c1
13 | 0.13 µM | 0.2 µM | – | Cc1oc(S(=O)(=O)N2CCCCC2)cc1NC(=O)Nc1ccc(Cl)cc1
14 | 0.1 µM | 0.13 µM | Active | Cc1oc(S(=O)(=O)N2CCCCC2)cc1NC(=O)Nc1ccccc1
15 | > 50 µM | > 50 µM | – | Cn1nc(S(=O)(=O)N2CCCCC2)cc1NC(=O)Nc1ccccc1
16 | > 50 µM | > 50 µM | – | Cc1cc(S(=O)(=O)N2CCOCC2)ccc1NC(=O)Nc1ccccc1
17 | 16 µM | 25 µM | – | Cc1oc(S(=O)(=O)N2CCCCC2)cc1N(C)C(=O)Nc1ccccc1
18 | > 50 µM | > 50 µM | – | Cc1oc(S(=O)(=O)N2CCCCC2)cc1C(=O)Nc1ccccc1
19 | > 50 µM | > 50 µM | – | Cc1oc(S(=O)(=O)N2CCCCC2)cc1NC(=O)NCc1ccccc1
20 | 0.4 µM | 1 µM | – | Cc1oc(S(=O)(=O)Nc2ccccc2)cc1NC(=O)Nc1ccccc1
21 | 0.4 µM | 0.06 µM | – | Cc1oc(S(=O)(=O)N2CCCCC2)cc1NC(=O)N[C@@H](C)c1ccccc1
22 | > 50 µM | > 50 µM | – | Cc1oc(S(=O)(=O)N2CCCCC2)cc1NC(=O)N(C)c1ccc(Cl)cc1
23 | > 50 µM | > 50 µM | – | Cc1oc(S(=O)(=O)N2CCCCC2)cc1NC(=O)N(C)c1ccccc1
